Patent US12516052B2, “Methyltransferase 5 (PRMT5) inhibitors and methods of treatment” (THE TRUSTEES OF INDIANA UNIVERSITY, priority 2016, dated 2026)
pIC50: −log10 of the molar value. Entries after “also recorded” stand apart in the source; their conditions may differ.

Experiments:
[1] = system: methamphetamine-treated rats; assay: Striatal neurotransmitter levels (HPLC) in methamphetamine-treated rats; type: in vivo; settings: methamphetamine 7.5 mg/kg ×4, then 4 injections of 1 mg/kg at 12 hour intervals, vs vehicle
Description: Rats were given methamphetamine treatment 7.5 mg/kg, 4 injections spaced out at 2 hours each. Then, 4 injections of 1 mg/kg of compound (IIa) or vehicle control were given at 12 hours, 24 hours, 36 hours, and 48 hours after the last methamphetamine injection. Rats were sacrificed 24 hours after the last injection and neurotransmitter levels were quantified in the striatum using high performance liquid chromatography (HPLC).

PRMT5 = target: T1, PRMT5 (Homo sapiens, UniProt O14744); assay: AlphaLISA PRMT5 methylation assay (biotin-histone H4R3, SAM); type: biochemical; settings: PRMT5 methylation of histone H4R3, in vitro; read-out: IC50 using AlphaLISA
T1 construct: Flag; made in house; host or cells: 293 cells
Description: FIG. 1 is a schematic illustration of the AlphaLISA technique for the identification of small-molecule PRMT5 inhibitors. Biotinylated substrate (histone H4) is incubated with PRMT5 and methyl donor, S-adenosyl-1-methionine (SAM). PRMT5 symmetrically dimethylates the third arginine (R3) on biotin-H4 to form biotin-H4R3me2. This product is recognized by Acceptor beads specific for this methylation site. Donor beads have a streptavidin tag and bind to biotin-H4. Interaction between the Acceptor and Donor beads emits a chemiluminescent signal, which is detected by an ENVISION™ Reader (PerkinElmer, Waltham, MA). The methylation activity of PRMT5 is proportional to the intensity of this signal.
In order to identify PRMT5 inhibitors, the AlphaLISA technique (PerkinElmer, Waltham, MA) was adapted to an assay that could precisely quantify PRMT5 dimethylation of its substrate in a 384-well HTS platform (FIG. 1). The AlphaLISA high-throughput screen comprises incubating a biotinylated substrate (e.g., histone H4), PRMT5, and a methyl donor (e.g., S-adenosyl-1-methionine (SAM)); PRMT5 dimethylates the biotinylated substrate and the dimethylated biotinylated substrate is recognized by Acceptor beads specific for the methylation site. Donor beads comprising a tag (e.g., streptavadin) bind to the biotinylated substrate, and interaction between the Acceptor beads and Donor beads emits a signal (e.g., chemiluminescent signal), which can be detected. The methylation activity of PRMT5 is proportional to the intensity of the signal.
In one embodiment of the method used to identify the compounds disclosed herein, PRMT5 enzyme was purified with anti-Flag-M2 beads (Sigma-Aldrich, St. Louis, MO) from 293 cells overexpressing the Flag-PRMT5 protein (Wei et al., Proc Natl Acad Sci USA, 2013; 110: 13516-13521). The enzyme prep was diluted at 1:10 in assay buffer (30 mM Tris, pH 8.0, 1 mM DTT, 0.01% BSA, 0.01% Tween-20) before use. […] The plates were read using an ENVISION™ Reader (PerkinElmer, Waltham, MA).

HT29 cells = assay: HT29 subcutaneous xenograft tumor efficacy study in NSG mice; type: in vivo; settings: 20 mg/kg intraperitoneally 3×/week, vs vehicle control, n=4
Description: (§1) NSG (NOD scid gamma) mice were obtained from the In Vivo Therapeutics Core at Indiana University School of Medicine. After acclimation for 7 days, NSG mice (6-8 weeks old) were xenografted with mycoplasma-free PANC1 or HT29 cells subcutaneously (1×10^7 PANC1 or 3×10^6 HT29 cells used per mouse in 0.2 ml of a 1:1 mix of phosphate-buffered saline and MATRIGEL™) (BD Biosciences, San Jose, CA). Mice were randomized when tumor volumes reached about 100 mm^3. Mice were treated with either vehicle control or 20 mg/kg of compound (Ia) (drug stock dissolved in 1:1 CREMOPHOR™:ethanol solution) intraperitoneally 3 times per week. Tumor volumes and body weights were measured twice a week. The study was performed in accordance with the guidelines and standards of the Institutional Animal Care and Use Committee (IACUC). […] NSG (NOD scid gamma) mice were obtained from the In Vivo Therapeutics Core at Indiana University School of Medicine. After acclimation for 7 days, NSG mice (6-8 weeks old) were xenografted with mycoplasma-free PANC1 or HT29 cells subcutaneously (1×10^7 PANC1 or 3×10^6 HT29 cells used per mouse in 0.2 ml of a 1:1 mix of phosphate-buffered saline and MATRIGEL™) (BD Biosciences, San Jose, CA). Mice were randomized when tumor volumes reached about 100 mm^3. […] Tumor volumes and body weights were measured twice a week. […]

[2] = system: NF-κB target genes (TNFα and IL8); assay: qPCR of NF-κB target genes in PANC1 cells; type: cell-based; settings: treated vs untreated
Description: Furthermore, experiments were performed to determine if PRMT5 inhibition by compound (IIa) could decrease the expression of NF-κB target genes (e.g., pro-inflammatory cytokines TNFα and IL-8). Briefly, HT29 and PANC1 cells were treated with or without compound (IIa), and target gene expression was analyzed by quantitative PCR.

PANC1 cells [3] = assay: Anchorage-independent (soft agar) growth assay in PANC1 cells; type: cell-based; settings: increasing concentrations
Description: The ability to form colonies suspended in soft agar is a characteristic of cancer cells. By using the stable cell lines established above, an anchorage-independent assay in soft agar was conducted. 2.5% and 1.25% agar were used to prepare the bottom and top layers of the soft agar, respectively. The bottom agar was added to each well of a 6-well plate. 2×10^5 cells for each cell line were then added and mixed into top agar solution and layered on top of the bottom layer. The plates were incubated for 10-20 days at 37° C. and 5% CO2. Images were captured using a Canon EOS Rebel T3i Digital SLR camera (Canon, Woodridge, IL) and quantification of colony size and number was performed using ImageJ. […] A soft agar experiment was also performed to determine the effect of compound (IIa) on colony growth.

PANC1 cells [4] = assay: PANC1 subcutaneous xenograft tumor efficacy study in NSG mice; type: in vivo; settings: 20 mg/kg intraperitoneally 3×/week, vs vehicle control, n=4
Description: as §1

T1 sequence (O14744 whole entry): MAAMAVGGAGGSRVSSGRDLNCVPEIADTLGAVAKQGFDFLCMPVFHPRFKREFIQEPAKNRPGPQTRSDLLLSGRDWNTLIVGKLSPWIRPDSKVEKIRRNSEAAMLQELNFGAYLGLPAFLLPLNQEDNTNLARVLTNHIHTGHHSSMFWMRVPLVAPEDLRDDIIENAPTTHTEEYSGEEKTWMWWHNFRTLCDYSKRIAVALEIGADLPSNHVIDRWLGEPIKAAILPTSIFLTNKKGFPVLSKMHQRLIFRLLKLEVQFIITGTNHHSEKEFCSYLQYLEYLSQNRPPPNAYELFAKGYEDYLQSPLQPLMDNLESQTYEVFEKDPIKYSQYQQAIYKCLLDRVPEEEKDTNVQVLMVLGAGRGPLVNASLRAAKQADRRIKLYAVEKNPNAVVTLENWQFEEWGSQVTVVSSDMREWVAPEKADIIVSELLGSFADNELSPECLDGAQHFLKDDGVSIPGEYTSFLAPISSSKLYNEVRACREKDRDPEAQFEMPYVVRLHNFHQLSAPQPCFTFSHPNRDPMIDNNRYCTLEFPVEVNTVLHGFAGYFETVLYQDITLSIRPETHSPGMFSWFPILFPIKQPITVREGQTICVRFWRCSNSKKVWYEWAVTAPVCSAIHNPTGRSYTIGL
T1 sequence (Q9BQA1 whole entry partner): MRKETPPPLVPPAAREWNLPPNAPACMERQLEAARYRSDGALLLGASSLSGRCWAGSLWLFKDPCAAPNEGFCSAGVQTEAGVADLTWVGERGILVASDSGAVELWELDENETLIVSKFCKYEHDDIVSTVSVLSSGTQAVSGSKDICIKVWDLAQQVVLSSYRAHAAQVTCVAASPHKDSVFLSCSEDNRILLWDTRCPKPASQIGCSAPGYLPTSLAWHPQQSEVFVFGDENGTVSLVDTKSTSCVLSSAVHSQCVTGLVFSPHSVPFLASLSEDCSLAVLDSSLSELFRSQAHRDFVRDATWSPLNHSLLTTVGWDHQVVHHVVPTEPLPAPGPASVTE

Cc1ccc(Nc2nc(NCCN(C)C)nc3c2cnn3-c2ccccc2)cc1C [compound (IIa)]
dopamine levels in the striatum [1]: increase | serotonin levels in the striatum [1]: increase | pIC50 (PRMT5): ~5.12 | tumor growth (tumor volume), HT29 xenograft (HT29 cells): significant tumor inhibition effect; also recorded: inhibition of tumor growth | IL8 expression (qPCR), PANC1 [2]: significant decrease; also recorded: dramatically decreased | TNFα expression (qPCR), PANC1 [2]: significant decrease; also recorded: dramatically decreased | anchorage-independent growth / colony formation, PANC1 (PDAC) (PANC1 cells [3]): strongly inhibited colony formation; also recorded: significant decrease | tumor growth (tumor volume), PANC1 xenograft (PANC1 cells [4]): significant tumor inhibition effect; also recorded: inhibition of tumor growth
